According to article PMC7115587 (European Journal of Medicinal Chemistry, 2014):

Tests used:
[1] = test system: CQ resistant W2 strain of P. falciparum; assay: In vitro antimalarial activity; assay type: cell-based, Plasmodium falciparum
[2] = test system: HCT116 (colon cancer cell line) cells; assay: In vitro cytotoxicity

| Compound | antimalarial activity (in words) [1] | cytotoxicity (in words) [2] |
| --- | --- | --- |
| O=C1C(=O)N(CC(CO)NCCNc2ccnc3cc(Cl)ccc23)c2ccccc21 (stereo not drawn) [Compound 11a, 1-{2-[2-(7-Chloro-quinolin-4-ylamino)-ethylamino]-3-hydroxy-propyl}-1H-indole-2,3-dione] | better activity than chloroquine |  |
| O=C1C(=O)N(CC(CO)NCCNc2ccnc3cc(Cl)ccc23)c2ccc(Cl)cc21 (stereo not drawn) [Compound 11b, 5-Chloro-1-{2-[2-(7-Chloro-quinolin-4-ylamino)-ethylamino]-3-hydroxy-propyl}-1H-indole-2,3-dione] |  | devoid of any cytotoxicity |
| O=C1C(=O)N(CC(CO)NCCCNc2ccnc3cc(Cl)ccc23)c2ccc(Cl)cc21 (stereo not drawn) [Compound 11f, 5-Chloro-1-{2-[3-(7-Chloro-quinolin-4-ylamino)-propylamino]-3-hydroxy-propyl}-1H-indole-2,3-dione] |  | devoid of any cytotoxicity |
